Measured values: PMC8847695 (Frontiers in Chemistry, 2022)

What was measured:
Type in all cases: binding
Conditions in all cases: 1 = hit, 0 = no hit
[1] = target: T1, CAMK1G (1-320) (Homo sapiens, UniProt Q96NX5); assay: STD-NMR fragment screening, CAMK1G
T1 construct: made in house; host or cells: E. coli BL21 (DE3) pLysS
Method: (§1) All fragments were stored at −20°C as solids in argon flushed glass bottles. For NMR screening, fragments were weighed and dissolved in DMSO-d6 to a stock concentration of 300 mM. Mother plates were prepared with a 100 mM concentration. From these plates, daughter plates were prepared with the fragments mixed in the plates to a concentration of 50 mM for each fragment. Daughter plates were opened a maximum of eight times. The plates were argon flushed and sealed with a HT121TS (HTA) and Foil Heat Seal (Biozym).
(§2) For long time measurements, like the protein ^1H NMR spectrum, the buffer exchange was performed twice to reduce residual buffer peaks. All experiments were performed on a Bruker Avance III HDX 700 instrument, equipped with a 5 mm Prodigy TCI cryo-probehead. For every protein, a standard ^1H NMR experiment with 1 k scans and water suppression through presaturation was performed. […] The on-resonance frequency, which was determined from the ^1H NMR spectra of the protein, was between 0.5 and 0.6 ppm; 40 ppm was used as the off-resonance frequency. For an interleaved acquisition of the on- and off-resonance, a pseudo-2D scheme was applied. The saturation was done by Gaussian pulses with a length of 50 ms and 60 dB of attenuation, with an interpulse delay of 1 ms leading to an excitation bandwidth of about 42 Hz. The screening was done with 16 scans of on- and off-resonance scans each, with a 3 s saturation time. The samples contained final concentrations of 20 µM protein, 10% (^V/V) DMSO-d6, and 1 mM of each of the two fragments. A ^1H-NMR experiment was performed for each compound to act as a reference spectrum in the STD experiments. All NMR experiments were carried out at 25°C.
(§3) Fifteen of these compounds contain the same halogen twice. No compound bears mixtures of different halogen atoms. Four proteins (AAK1, CAMK1G, IDO1, and DOT1L) were screened against this HEFLib using STD-NMR. A fragment was considered a hit if the peak intensity in the difference spectrum was three times higher than the local background noise. […] Chemical compatibility and peak complementarity were assured for these mixtures. Samples containing more than two fragments were avoided to minimize the possible target competition and to decrease the risk of fragment interactions. […] The ^1H reference NMR spectrum of the mixture is shown in red for comparison. […] As fragment mixtures can lead to competitive effects between their fragments, it is not advised to use the quantification of peak mixtures for hit ranking.

[2] = target: T2, IDO1 (1-435) (Homo sapiens, UniProt P14902); assay: STD-NMR fragment screening, IDO1
T2 construct: His-tag of pET15b with TEV site (thrombin site replaced) (cleaved yes); made in house; host or cells: E. coli Rosetta 2 (DE3) pLysS
T2 sequence (P14902 whole entry, the tested form may be a part): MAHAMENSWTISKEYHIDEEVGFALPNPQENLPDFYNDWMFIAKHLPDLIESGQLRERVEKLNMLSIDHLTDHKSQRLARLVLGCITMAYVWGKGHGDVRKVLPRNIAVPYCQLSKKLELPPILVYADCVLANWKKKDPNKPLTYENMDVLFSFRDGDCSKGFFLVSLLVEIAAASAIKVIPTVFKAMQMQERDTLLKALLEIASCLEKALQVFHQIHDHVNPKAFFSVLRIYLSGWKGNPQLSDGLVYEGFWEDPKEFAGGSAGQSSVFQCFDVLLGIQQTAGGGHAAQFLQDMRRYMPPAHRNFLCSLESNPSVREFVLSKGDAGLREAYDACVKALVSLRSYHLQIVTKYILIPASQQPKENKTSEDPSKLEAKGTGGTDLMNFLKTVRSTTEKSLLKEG
Method: as §1, §2, §3

[3] = target: AAK1 (121-471) (Homo sapiens, UniProt Q2M2I8); assay: STD-NMR fragment screening, AAK1
Sequence of AAK1 (121-471) (Q2M2I8 46-315 limits assumed): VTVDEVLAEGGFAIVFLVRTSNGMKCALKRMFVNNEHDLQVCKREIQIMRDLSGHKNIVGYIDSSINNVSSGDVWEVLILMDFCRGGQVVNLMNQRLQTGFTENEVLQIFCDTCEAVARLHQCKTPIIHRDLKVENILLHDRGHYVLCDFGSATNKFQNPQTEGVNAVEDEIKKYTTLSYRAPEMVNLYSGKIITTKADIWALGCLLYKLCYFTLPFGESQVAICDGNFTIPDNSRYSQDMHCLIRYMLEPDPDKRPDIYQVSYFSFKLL
Method: as §1, §2, §3

[4] = target: T3, DOT1L (1-416) (Homo sapiens, UniProt Q8TEK3); assay: STD-NMR fragment screening, DOT1L
T3 construct: made in house; host or cells: E. coli BL21 (DE3) pLysS
T3 sequence (Q8TEK3 1-416): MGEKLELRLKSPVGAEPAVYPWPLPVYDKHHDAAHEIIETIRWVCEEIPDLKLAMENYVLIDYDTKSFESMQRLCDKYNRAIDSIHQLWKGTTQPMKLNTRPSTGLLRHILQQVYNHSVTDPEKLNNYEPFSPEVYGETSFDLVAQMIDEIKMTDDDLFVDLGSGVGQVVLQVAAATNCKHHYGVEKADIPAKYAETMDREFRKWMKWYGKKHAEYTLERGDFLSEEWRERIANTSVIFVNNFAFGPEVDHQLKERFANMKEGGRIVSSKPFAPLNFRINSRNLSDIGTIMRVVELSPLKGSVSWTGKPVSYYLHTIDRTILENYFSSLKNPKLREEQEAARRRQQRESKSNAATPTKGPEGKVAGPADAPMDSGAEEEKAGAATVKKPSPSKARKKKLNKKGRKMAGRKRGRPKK
Method: as §1, §2, §3

T1 sequence (Q96NX5 1-320): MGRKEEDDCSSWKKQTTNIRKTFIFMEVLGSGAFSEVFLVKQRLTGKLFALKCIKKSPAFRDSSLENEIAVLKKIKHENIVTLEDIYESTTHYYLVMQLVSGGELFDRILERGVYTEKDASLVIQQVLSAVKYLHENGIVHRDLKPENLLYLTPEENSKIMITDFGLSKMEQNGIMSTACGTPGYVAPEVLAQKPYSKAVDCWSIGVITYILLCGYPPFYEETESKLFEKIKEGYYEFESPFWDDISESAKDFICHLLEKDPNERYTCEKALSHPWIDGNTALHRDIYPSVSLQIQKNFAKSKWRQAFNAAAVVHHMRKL

| SMILES | CAMK1G (STD-NMR hit flag) [1] | IDO1 (STD-NMR hit flag) [2] | AAK1 (STD-NMR hit flag) [3] | DOT1L (STD-NMR hit flag) [4] |
| --- | --- | --- | --- | --- |
| Cn1nc(Br)nc1NN [Fragment B02290120] | 1 | 0 | 0 | 1 |
| Clc1ccc(CN2CCNCC2)cn1 [Fragment B02290121] | 0 | 0 | 0 | 0 |
| Brc1csc(CN2CCNCC2)c1 [Fragment B02290122] | 0 | 0 | 0 | 0 |
| Cc1c(Cl)c([N+](=O)[O-])nn1CC(=O)O [Fragment B02290123] | 0 | 1 | 0 | 0 |
| O=C(c1ccc(Br)cc1)C12CN3CN(CN(C3)C1)C2 [Fragment B02290401] | 0 | 0 | 0 | 0 |
| O=S(=O)(CCO)c1n[nH]c(Cl)n1 [Fragment B02290402] | 0 | 0 | 0 | 0 |
| COCn1nc(Br)nc1C(N)=O [Fragment B02290403] | 0 | 0 | 1 | 0 |
| COCn1nc(Br)[nH]c1=O [Fragment B02290404] | 0 | 0 | 0 | 0 |
| Brc1cnc(C2OCCO2)s1 [Fragment B02290407] | 0 | 0 | 1 | 0 |
| O=C(O)C(=O)Nc1ccc(Cl)cn1 [Fragment B02290408] | 0 | 0 | 0 | 0 |
| Cc1n[nH]c(C)c1I [Fragment B02290459] | 1 | 1 | 1 | 1 |
| O=c1[nH]cc(Cl)cc1[N+](=O)[O-] [Fragment B02290460] | 1 | 0 | 0 | 0 |
| Nc1ncc(Br)s1 [Fragment B02290461] | 0 | 0 | 0 | 0 |
| Brc1nnc2n1CCNC2 [Fragment B02290462] | 0 | 0 | 0 | 0 |
| O=C(O)c1n[nH]cc1Br [Fragment B02290463] | 0 | 0 | 0 | 0 |
| N#Cc1n[nH]cc1Br [Fragment B02290464] | 1 | 1 | 1 | 0 |
| Cn1c(Cl)cc(=O)n(C)c1=O [Fragment B02290465] | 0 | 0 | 1 | 0 |
| O=C(O)c1ccc(Cl)o1 [Fragment B02290466] | 0 | 0 | 0 | 0 |
| O=C1Nc2c(Cl)cccc2C1=O [Fragment B02290467] | 0 | 0 | 0 | 0 |
| Clc1cnc2nn[nH]c2c1 [Fragment B02290468] | 0 | 0 | 0 | 0 |
| O=C(O)c1cc(Cl)nnc1Cl [Fragment B02290470] | 0 | 0 | 0 | 0 |
| Nc1c(Cl)ccc(O)c1Cl [Fragment B02290471] | 0 | 0 | 1 | 0 |
| Nc1ncnc(C(=O)O)c1Cl [Fragment B02290472] | 0 | 0 | 0 | 0 |
| CN1CCN(C(CN)c2ccccc2Cl)CC1 (stereo not drawn) [Fragment B02290483] | 0 | 0 | 0 | 0 |

Continued, values first:

| CAMK1G (STD-NMR hit flag) [1] | IDO1 (STD-NMR hit flag) [2] | AAK1 (STD-NMR hit flag) [3] | DOT1L (STD-NMR hit flag) [4] | SMILES |
| --- | --- | --- | --- | --- |
| 1 | 0 | 1 | 0 | Fc1cnccc1I [Fragment B02290473] |
| 0 | 0 | 1 | 0 | O=c1[nH]c2ccc(Cl)nc2[nH]1 [Fragment B02290474] |
| 1 | 0 | 1 | 0 | Nc1ncc(Br)cc1CO [Fragment B02290475] |
| 0 | 0 | 0 | 0 | Nc1nc(Cl)nc2[nH]cnc12 [Fragment B02290476] |
| 0 | 0 | 0 | 0 | Clc1cscn1 [Fragment B02290477] |
| 0 | 0 | 0 | 0 | CC(Cn1cc(Cl)cn1)C(=O)O (stereo not drawn) [Fragment B02290481] |
| 0 | 0 | 0 | 0 | Brc1cnc2[nH]nnc2c1 [Fragment B02290482] |
| 1 | 1 | 1 | 0 | Cc1onc(N)c1I [Fragment B02290521] |
| 0 | 1 | 1 | 0 | Cc1nn(C)c(Cl)c1S(N)(=O)=O [Fragment B02290522] |
| 0 | 0 | 0 | 0 | O=C(O)c1cc(Br)c[nH]c1=O [Fragment B02290523] |
| 0 | 0 | 0 | 0 | Cn1c(=O)cc(Cl)[nH]c1=O [Fragment B02290524] |
| 0 | 0 | 0 | 0 | Cc1ccc(Cl)c(CN)c1F [Fragment B02290525] |
| 0 | 0 | 0 | 0 | O=C(O)c1c(I)ccnc1F [Fragment B02290658] |
| 0 | 0 | 0 | 0 | O=C(O)c1nccc(Cl)c1Cl [Fragment B02290659] |
| 0 | 0 | 1 | 1 | CN(C)S(=O)(=O)n1nccc1Br [Fragment B02290660] |
| 1 | 1 | 1 | 0 | CC(=O)c1c[nH]c2ncnc(Cl)c12 [Fragment B02290661] |
| 0 | 0 | 0 | 0 | Oc1coc(O)c1Br [Fragment B02291100] |
| 1 | 1 | 1 | 0 | Cc1nc(N)nc(Cl)c1Cl [Fragment B02291102] |
